Source: US12054509B2, “Antimicrobial compounds, compositions, and uses thereof” (Lakewood Amedex, Inc., priority 2017, dated 2024)

How the values were obtained:
E. coli ATCC 25922 = assay: Bacterial cytological profiling (Example 6), E. coli; format: cell-based; details: for effect on cell envelope: BCP; for cell membrane permeability: buffered pH 4 or unbuffered LB; for DNA condensation: higher treatment concentrations, buffered pH 4; for cell wall deformations: unbuffered LB;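 as to cell wall deformations: tested at 1 0.5 and 0.25 times MIC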;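 as to effect on cell envelope: tested at 1 0.5 and 0.25 times MIC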
Experimental: (§1) This bacterial cytological profiling (BCP) study uses methods and materials described previously by Nonejuie, P., Burkart, M., Poglianoa, K., Pogiano, J. (2013). Bacterial cytological profiling rapidly identifies the cellular pathways targeted by antibacterial molecules. Proc. Natl. Acad. Sci. U.S.A. 110(40):16169-16174. doi: 10.1073/pnas.1311066110.
(§2) Wild type strains of E. coli ATCC 25922 or P. aeruginosa K2732 are grown in rich media (unbuffered 2× Lysogeny broth [LB]) at 30 C to an OD600˜0.4. These cultures are then split and each sample treated with the appropriate concentration of Nu-8 in unbuffered or buffered LB (final mixture OD600˜0.1). Cells exposed without Nu-8 are buffered to pH 4 with phosphoric acid.
(§3) The BCP is performed in LB media buffered to pH 4. The minimum inhibitory concentration (MIC) is measured for Nu-3, Nu-4, Nu-5, and Nu-8 against each bacterial strain. As one of ordinary skill in the art understands, minimum inhibitory concentrations are the lowest concentration of an antimicrobial that will inhibit the visible growth of a microorganism after overnight incubation. […] Cellular viability is assayed at three time points (5 minutes and 4 and 24 h following the onset of treatment).
(§4) For imaging E. coli, treated cells are stained with 1 μg/Ml FM4-64, 2 μg/mL DAPI, and 0.5 μM SYTOXGreen (Molecular Probes/Invitrogen). P. aeruginosa samples are stained 0.5 μM SYTOX Green, 28 μg/mL DAPI, and 4.5 μg/mL FM 4-64. Cells are transferred to an agarose pad (20% LB, 1% agarose) for imaging as described in Pogliano, J., Osborne, N., Sharp, M. D., Abanes-De Mello, A., Perez, A., Sun, Y.-L. and Pogliano, K. (1999), A vital stain for studying membrane dynamics in bacteria: a novel mechanism controlling septation during Bacillus subtilis sporulation. Molecular Microbiology, 31: 1149-1159. doi:10.1046/j.1365-2958.1999.01255.x.

P. aeruginosa K2732 = assay: Bacterial cytological profiling (Example 6), P. aeruginosa; format: cell-based; details: for effect on cell envelope: BCP; for cell membrane permeability: buffered pH 4 or unbuffered LB;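 as to effect on cell envelope: tested at 1 0.5 and 0.25 times MIC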
Experimental: as §1, §2, §3, §4

[1] = pH of 20 mg/mL (2%) aqueous solution; format: physicochemical; details: 20 mg/mL in DI water
Experimental: pH studies are conducted to show the pH of Nu-8 compared to Bisphosphocin® compounds Nu-2, Nu-4, and Nu-5. 20 mg/mL Nu-2 solution is prepared by diluting 2 mL of 250 mg/mL Nu-2 solution with 23 mL DI water. 20 mg/mL Nu-4 and Nu-5 solutions are prepared in the same way. 401.65 mg Nu-8 is weighed in a 5 mL volumetric flask and diluted with DI water to volume. 20 mg/mL Nu-8 solution is prepared by diluting 5 mL of 80.3 mg/mL Nu-8 solution with 15 mL DI water. The pH values of 4 Nu-2, Nu-4, Nu-5, and Nu-8 at 20 mg/mL are measured with a calibrated pH meter. Also shown in TABLE 2 is a summary of other physical properties of the compound of Formula (I) and reference compounds Nu-2, Nu-4, and Nu-5.

[2] = Pow (partition coefficient); format: physicochemical
[3] = tested on: Escherichia coli (strain CFT073, TPPS 1041); assay: Urinary tract infection model in BALB/c mice, initial efficacy (Example 10); format: in vivo; details: 50 mg/kg transurethral at 24 hr, 60 minutes post-treatment
Description: Female BALB/c mice (20-22 g) ordered from Envigo are acclimated to housing conditions and handled in accordance with Animal Use Protocol (AUP) number TP-08. Animals are fed irradiated Teklad Global 29 18 Rodent Diet and water ad libitum. Mice are housed 6/cage in static cages with irradiated ⅛″ Teklad corn cobbedding 7902 inside bioBubble® clean rooms that provide H.E.P.A filtered air into the bubble environment at 100 complete air changes per hour. The environment is controlled to a temperature range of 74°±4° F. and a humidity range of 30-70%. All procedures carried out in this experiment are conducted in compliance with the laws, regulations, and guidelines of the National Institutes of Health and with the approval of the TransPharm Preclinical Solutions Animal Care and Use Committee.
A clinical isolate of Escherichia coli (strain CFT073, TPPS 1041) are procured from the University of Michigan.
The organism is grown overnight at 37° C. in ambient atmosphere on trypticase soy agar plates supplemented with 5% sheep blood cells. The culture is aseptically swabbed and transferred to tubes of trypticase soy broth. The optical density is determined at 600 nm. The culture is diluted to provide an inoculum of approximately 7.5 log10 CFU per mouse in a volume of 30 μL. Instillation of the bacterial challenge constituted time 0 hour for the study. Inoculum counts are estimated before inoculation by optical density and confirmed after inoculation by dilution and back counts.
One hour prior to bacterial challenge, water is removed from animal cages. […]
The primary endpoint used to assess progress of the infection is mean bacterial burden per gram of urinary bladder tissue. […] Colony forming units (CFU) are enumerated and the total bacterial burden per gram of urinary bladder tissue homogenate is calculated.
The geometric mean CFU, along with standard error of the mean (SEM), are calculated using Microsoft Excel and bar charts are prepared for the data using GraphPad Prism v. […]

Row | Compound | effect on cell envelope (E. coli ATCC 25922) | cell membrane permeability (E. coli ATCC 25922) | DNA condensation (E. coli ATCC 25922) | cell wall deformations (E. coli ATCC 25922) | effect on cell envelope (P. aeruginosa K2732) | cell membrane permeability (P. aeruginosa K2732) | pH (2% solution) [1] | Pow [2] | average bladder CFU burden [3] [log10 CFU]
1 | CCCCOP(=O)(O)OCCOCCOP(=O)(O)OCCCC [Nu-5] | affect the cell envelope | increase cell membrane permeability | causes DNA condensation | cause cell wall deformations | affect the cell envelope | increase cell membrane permeability | 0.93 | 0.0480 | 
2 | gentamicin [reference compound] |  |  |  |  |  |  |  |  | 6.1
3 | COC1[C@@H](OP(=O)(O)OCCCCO)[C@@H](COP(=O)(O)OCCCCO)O[C@H]1n1ccc(=O)[nH]c1=O (stereo partly shown) [Nu-2] |  |  |  |  |  |  | 0.99 | 0.0407 | 
4 | CCCCOP(=O)(O)OC[C@H]1O[C@@H](n2cc(C)c(=O)[nH]c2=O)C[C@H]1OP(=O)(O)OCCCC [Nu-4] | affect the cell envelope | increase cell membrane permeability | causes DNA condensation | cause cell wall deformations | affect the cell envelope | increase cell membrane permeability | 0.94 | 0.0592 | 
